Test results: paper PMC6271771, “4-Amino-substituted Benzenesulfonamides as Inhibitors of Human Carbonic Anhydrases” (Molecules, 2014)
“And” between values parts separate entries of the source, which are not always exact repeats. Identical values can stand only once. Like-named read-outs stand apart in the source and are kept apart here.

Assays:
CA VI [1] = target: T1, CA VI (Homo sapiens, UniProt P23280); parameters: method as in Murakami and Sly 35; conditions: read-out: Ki for CA VI; ref Murakami and Sly 35; cited from earlier work
T1 construct: made in house

CA I [2] = target: T2, CA I (Homo sapiens, UniProt P00915); test: Fluorescent thermal shift assay (FTSA), CA I; type: binding
T2 construct: made in house

CA VI [3] = target: T1, CA VI; test: Fluorescent thermal shift assay (FTSA), CA VI; type: binding
CA XIII [4] = target: T3, CA XIII (Homo sapiens, UniProt Q8N1Q1); test: Fluorescent thermal shift assay (FTSA), CA XIII; type: binding
T3 construct: made in house

CA VI [5] = target: T1, CA VI; parameters: method as in PMID 24300919, PMID 17228881; conditions: read-out: inhibition constant Ki for CA VI; previously reported; cited from earlier work
CA VII [6] = target: T4, CA VII (Homo sapiens, UniProt P43166); test: Fluorescent thermal shift assay (FTSA), CA VII; type: binding
T4 construct: made in house

CA XII [7] = target: T5, CA XII (Homo sapiens, UniProt O43570); test: Fluorescent thermal shift assay (FTSA), CA XII; type: binding
T5 construct: made in house

CA II [8] = target: T6, CA II (Homo sapiens, UniProt P00918); test: Fluorescent thermal shift assay (FTSA), CA II; type: binding; conditions: pH 7.0, 37 °C
T6 construct: made in house

CA II [9] = target: T6, CA II; test: Isothermal titration calorimetry (ITC), CA II; type: binding; conditions: for K (ITC titration of CA II) / ΔH (ITC titration of CA II): 37 °C, 50 mM phosphate buffer (pH 7.0), 100 mM NaCl, 2% DMSO, Figure 2
Method: (§1) The synthesized compounds could be arranged into two groups. The first group of compounds is the N-aryl-β-alanine derivatives containing the primary sulfonamide group 3–25 (except in the compound 4 which is a tertiary sulfonamide) and the second group of compounds—diazobenzenesulfonamides 26–33. Compounds such as benzenesulfonamide (BSA) and acetazolamide (AZM) were used as controls. The binding affinity of these compounds to six CA isoforms I, II, VI, VII, XII, and XIII was determined by the fluorescent thermal shift assay (FTSA) and confirmed for two key compounds 18 and 31 by the isothermal titration calorimetry (ITC).
(§2) Isothermal titration calorimetry (ITC) experiments were performed using VP-ITC instrument (Microcal, Inc., Northampton, MA, USA) with 5–10 µM protein solution in the cell and 50–100 µM of the ligand solution in the syringe. A typical experiment consisted of 25 injections (10 µL each) within 3 min intervals. Experiments were performed at 37 °C in a 50 mM sodium phosphate buffer containing 100 mM NaCl at pH 7.0, with a final DMSO concentration of 2%, equal in the syringe and the cell.

CA I [10] = target: T2, CA I; test: Isothermal titration calorimetry (ITC), CA I; type: binding
Method: as §1, §2

CA XIII [11] = target: T3, CA XIII; test: Isothermal titration calorimetry (ITC), CA XIII; type: binding
Method: as §1, §2

CA VII [12] = target: T4, CA VII; test: Isothermal titration calorimetry (ITC), CA VII; type: binding
Method: as §1, §2

CA XII [13] = target: T5, CA XII; test: Isothermal titration calorimetry (ITC), CA XII; type: binding; conditions: pH 7.0, 37 °C, read-out: Kd for CA XII by isothermal titration calorimetry (values in the brackets)
Method: as §1, §2

[14] = FTSA, pH 7.0, 37 °C, read-out: Compound Dissociation Constants Kd for CA XIII
[15] = FTSA, pH 7.0, 37 °C, read-out: Compound Dissociation Constants Kd for CA XII
[16] = read-out: Compound Dissociation Constants Kd for CA II
[17] = FTSA, pH 7.0, 37 °C, read-out: Compound Dissociation Constants Kd for CA I
[18] = FTSA, pH 7.0, 37 °C, read-out: Compound Dissociation Constants Kd for CA VI
[19] = FTSA, pH 7.0, 37 °C, read-out: Compound Dissociation Constants Kd for CA VII

T2 sequence (P00915 whole entry): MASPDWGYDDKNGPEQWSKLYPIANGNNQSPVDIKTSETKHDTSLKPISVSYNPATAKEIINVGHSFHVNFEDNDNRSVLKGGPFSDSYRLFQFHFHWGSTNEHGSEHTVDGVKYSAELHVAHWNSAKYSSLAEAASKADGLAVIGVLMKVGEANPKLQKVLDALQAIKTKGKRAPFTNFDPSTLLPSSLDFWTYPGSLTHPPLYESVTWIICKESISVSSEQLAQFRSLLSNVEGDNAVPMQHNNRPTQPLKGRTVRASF
T4 sequence (P43166 whole entry): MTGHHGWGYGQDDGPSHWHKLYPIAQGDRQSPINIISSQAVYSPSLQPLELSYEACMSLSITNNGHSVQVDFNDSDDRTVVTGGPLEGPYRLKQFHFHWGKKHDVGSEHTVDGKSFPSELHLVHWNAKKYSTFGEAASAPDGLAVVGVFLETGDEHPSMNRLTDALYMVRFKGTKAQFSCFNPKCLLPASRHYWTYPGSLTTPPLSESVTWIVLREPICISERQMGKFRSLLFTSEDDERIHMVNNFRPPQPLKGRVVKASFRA
T5 sequence (O43570 30-289 limits assumed): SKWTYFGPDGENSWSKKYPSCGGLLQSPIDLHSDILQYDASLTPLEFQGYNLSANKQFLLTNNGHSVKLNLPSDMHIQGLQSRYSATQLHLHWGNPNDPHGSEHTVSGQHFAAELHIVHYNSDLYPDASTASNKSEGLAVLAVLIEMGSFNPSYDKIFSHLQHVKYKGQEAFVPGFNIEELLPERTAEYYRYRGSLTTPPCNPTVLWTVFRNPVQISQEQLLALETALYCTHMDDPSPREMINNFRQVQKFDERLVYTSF
T1 sequence (P23280 18-308): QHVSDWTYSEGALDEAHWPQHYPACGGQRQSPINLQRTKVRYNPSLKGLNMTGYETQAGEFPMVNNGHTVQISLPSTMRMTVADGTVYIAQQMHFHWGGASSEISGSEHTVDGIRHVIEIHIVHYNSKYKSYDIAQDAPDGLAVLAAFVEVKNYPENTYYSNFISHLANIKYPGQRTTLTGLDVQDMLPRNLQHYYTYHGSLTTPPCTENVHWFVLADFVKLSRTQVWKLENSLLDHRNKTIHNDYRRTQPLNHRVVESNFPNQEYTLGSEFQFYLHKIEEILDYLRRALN
T3 sequence (Q8N1Q1 whole entry): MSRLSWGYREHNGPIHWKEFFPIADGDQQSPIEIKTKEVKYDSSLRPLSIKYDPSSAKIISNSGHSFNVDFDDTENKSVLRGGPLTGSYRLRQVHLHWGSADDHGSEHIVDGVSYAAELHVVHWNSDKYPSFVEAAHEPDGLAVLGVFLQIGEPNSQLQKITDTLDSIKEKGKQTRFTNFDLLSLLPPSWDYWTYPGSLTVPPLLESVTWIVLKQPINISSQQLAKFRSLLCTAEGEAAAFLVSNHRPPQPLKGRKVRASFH

Row | SMILES | Kd (CA XIII [4]; [14]) [µM] | Kd (CA XII [7]; [15]) [µM] | melting point [°C] | Kd (CA II [8]; [16]) | Kd (CA I [2]; [17]) [µM] | Kd (CA VI [3]; [18]) [µM] | Kd (CA VII [6]; [19]) [µM] | also measured
1 | Nc1ccc(S(N)(=O)=O)cc1 [Compound 1, 4-Aminobenzene-1-sulfonamide, reference compound] | 100 | – | – | – | – | – | – | Ki (CA VI [1]): 9.9 µM; difference between own Kd and Ki of Murakami and Sly, CA I (CA I [2]; Kd (FTSA) versus Ki of ref 35): 2 times; Kd (CA VI [3]): 56 µM; Ki (CA VI [5]): 0.9 µM; Kd (CA VII [6]): 50 µM
2 | CN(C)c1ccc(/C=N/NC(=O)CCNc2ccc(S(N)(=O)=O)cc2)cc1 [Compound 16] | 55.6 | 33.3 | 179 to 180.5 | 8.33 µM | 37 | 50 | 25 | –
3 | NS(=O)(=O)c1ccc(NCCC(=O)NN=Cc2ccc([N+](=O)[O-])cc2)cc1 [Compound 17, 4-[(2-{N′-[(4-Nitrophenyl)methylidene]hydrazinecarbonyl]ethyl)amino]benzene-1-sulfonamide] | 50 | 67 | 227 to 228.5 | 3.6 µM | 20 | 25 | 25 | –
4 | NS(=O)(=O)c1ccc(NCCc2n[nH]c(=S)n2-c2ccccc2)cc1 [Compound 23, 4-{[2-(4-Phenyl-5-sulfanylidene-4,5-dihydro-1H-1,2,4-triazol-3-yl)ethyl]amino}benzene-1-sulfonamide] | 10 | 6.67 | 253 to 254 | 2 µM | 10 | 11.1 | 6.67 | –
5 | NS(=O)(=O)c1ccc(/N=N/N2CCCCCC2)cc1 [Compound 31] | – | – | – | – | – | – | – | Kd (CA XII [7]): 0.67 µM; Kd (CA II [8]; Compound Dissociation Constants Kd for CA II): 0.0435 µM; Kd (CA II [9]): 0.04 µM; K (ITC titration of CA II) (CA II [9]): 2.5E7; ΔH (ITC titration of CA II) (CA II [9]): -9640; Kd (CA I [10]): 0.022 µM; Kd (CA XII [13]): 0.22 µM; Kd (CA I [2]): 0.006 µM; Kd (CA VI [3]): 14.3 µM; Kd (CA XIII [11]): 0.078 µM; Kd (CA XIII [4]): 0.0222 µM; Kd (CA VII [12]): 0.192 µM; Kd (CA VII [6]): 0.125 µM

The next lines start with results.

Row | Kd (CA XIII [4]; [14]) [µM] | Kd (CA XII [7]; [15]) [µM] | melting point [°C] | Kd (CA II [8]; [16]) | Kd (CA I [2]; [17]) [µM] | Kd (CA VI [3]; [18]) [µM] | Kd (CA VII [6]; [19]) [µM] | SMILES | also measured
6 | 7.14 | 31.3 | 218 to 219 | 1.82 µM | 12.5 | 7.1 | 5.88 | NS(=O)(=O)c1ccc(NCCC(=O)N/N=C/c2ccc(Br)cc2)cc1 [Compound 14, 4-[(2-{N'-[(4-Bromphenyl)methylidene]hydrazinecarbonyl}ethyl)amino]benzene-1-sulfonamide] | –
7 | 8.33 | 33.3 | 226 to 227 | 2 µM | 12.5 | 6.7 | 12.5 | NS(=O)(=O)c1ccc(NCCC(=O)NN=Cc2ccc(Cl)cc2)cc1 [Compound 15, 4-[(2-{N'-[(4-Chlorophenyl)methylidene]hydrazinecarbonyl}ethyl]amino)benzene-1-sulfonamide] | –
8 | 4 | 14.3 | – | 0.67 µM and 0.667 µM | 1.67 | 27 | 3.33 | Cc1cc(C)n(C(=O)CCNc2ccc(S(N)(=O)=O)cc2)n1 [Compound 18, 4-{[3-(3,5-Dimethyl-1H-pyrazol-1-yl)-3-oxopropyl]amino}benzene-1-sulfonamide] | K (ITC titration of CA II) (CA II [9]): 2.2E6; ΔH (ITC titration of CA II) (CA II [9]): -9320; Kd (CA II [9]; ITC, pH 7.0, 37 °C, read-out: Kd for CA II by isothermal titration calorimetry (values in the brackets)): 0.454 µM; Kd (CA I [10]; ITC, pH 7.0, 37 °C, read-out: Kd for CA I by isothermal titration calorimetry (values in the brackets)): 0.75 µM; Kd (CA XIII [11]; ITC, pH 7.0, 37 °C, read-out: Kd for CA XIII by isothermal titration calorimetry (values in the brackets)): 1 µM; Kd (CA VII [12]; ITC, pH 7.0, 37 °C, read-out: Kd for CA VII by isothermal titration calorimetry (values in the brackets)): 0.9 µM
